From US20130324522A1, “INSECT ODORANT RECEPTOR ANTAGONISTS” (THE ROCKEFELLER UNIVERSITY, priority 2010, published 2013) come the findings set out here.

Holding throughout (assay type): cell-based
One assay concerns the target OR8/OR7 (Anopheles gambiae, UniProt Q7PUT5+Q7QCC7). Briefly: Ca2+-imaging of stable HEK293T cell line OR8/OR7. The settings on record: for inhibition at 4 µM: HEK-293T, compound applied at 4 μM, read-out: Percent Inhibition OR8 OR7; for IC50: Table B, read-out: IC50 OR8. The method, then: (§1) Full-length cDNAs for mosquito (Anopheles gambiae) odorant receptor (OR1, OR2, OR7, OR8, OR28), and fly (Drosophila melanogaster) odorant receptor (Or47a, Or83b), mouse TRP channel (TRPM8), and mouse serotonin receptor (5HT3) were obtained and subcloned into mammalian expression vectors. The following mammalian expression vectors were used:
(§2) Stable cell lines OR1/OR7, OR2/OR7, OR8/OR7, OR10/OR7, OR28/OR7 and TRPM8 were generated from HEK293T cells. HEK293T-based cell lines were cultured in DMEM supplemented with these additional antibiotics: 6 μg/mL blasticidin and 1 μg/mL puromycin, with the exception of the TRPM8 cell lines, which was cultured in DMEM supplemented with 1 μg/mL puromycin.
(§3) Cells were trypsinized and split into 35 mm dishes one day before transfection. Confluent cells (60-70%) in 35 mm dishes were transfected with 1 μg of insect OR(X) plasmids in pME18s-bla and 1 μg of OR7-pME18s-puro using lipofectamine 2000. For Anopheles odorant receptors, two plasmids were co-transfected into HEK cells: the ligand-specific receptor (OR1, OR2, OR8, OR28) and the corresponding olfactory co-receptor: OR7. Cell lines containing TRPM8 were transfected with single plasmid.
(§4) Stable cell lines were cultured in 10 cm dishes, and confluent cells (70-80%) were trypsinized. 10,000 cells/20 μL were transferred into each well of 384-well plates coated with poly-D-lysine, and cultured for 2 days. For Flip-In T-Rex cells (cell lines expressing Or47a/Or83b and 5HT3), 5 μL of tetracycline (5 μg/mL) were added 1 day before the assay. 20 μL of Ca-4 dye was loaded into each well for 1.5 hr at room temperature in the dark, and the dye-loaded plates were subjected to Ca^2+-imaging using a Hamamatsu FDSS6000 real time fluorescence plate reader. Odorant solutions (9× final concentration) were prepared by dissolving 1M stock solutions into Hank's Buffered Salt Solution (HBSS), and 30 μL of odor solution was transferred to each well in 384-well plates.
(§5) Compounds ([…] in DMSO) were stored in 384-well plates, and last two columns (32 wells total) contained only DMSO. 200 nL of small compounds were transferred into the odorant plates before the assay using the Perkin-Elmer Janus workstation. The odorant plates were spun down to remove air bubbles, and placed on the FDSS6000 plate loader, and 5 μL of odorant solution was applied to the cell plate on the FDSS6000. Ca^2+ increase was monitored with fluorescence at 525 nm by excitation at 485 nm.

In a further assay the target is OR10/OR7 (Anopheles gambiae, UniProt B5U0U7+Q7QCC7). Briefly: Ca2+-imaging of stable HEK293T cell line OR10/OR7. The settings on record: for inhibition at 4 µM: HEK-293T, compound applied at 4 μM, read-out: Percent Inhibition OR10 OR7; for IC50: Table B, read-out: IC50 OR10. As to the method:
as §2
After one day of incubation, the transfected cells were transferred into 10 cm dishes with DMEM containing antibiotics as follows: • 0.5 μg/mL of blasticidin for OR1/OR7, OR2/OR7, OR8/OR7, OR10/OR7, OR28/OR7 • 0.2 μg/mL of puromycin for TRPM8.
as §4, §5

The next assay has as its target T1, TRP channel (TRPM8) (Mus musculus, UniProt Q8R4D5).
T1 construct: Full-length cDNAs for mosquito (Anopheles gambiae) odorant receptor (OR1, OR2, OR7, OR8, OR28), and fly (Drosophila melanogaster) odorant receptor (Or47a, Or83b), mouse TRP channel (TRPM8); expressed in transfected cells
Briefly: Ca2+-imaging of stable HEK293T cell line TRPM8. To be noted: HEK-293T; compound applied at 4 μM; read-out: Percent Inhibition TRPM8. As to the method: as §1, §2, §3, §4, §5

The target of another assay is T2, mOREG (Mus musculus, UniProt Q920P2).
T2 sequence (Q920P2 1-313): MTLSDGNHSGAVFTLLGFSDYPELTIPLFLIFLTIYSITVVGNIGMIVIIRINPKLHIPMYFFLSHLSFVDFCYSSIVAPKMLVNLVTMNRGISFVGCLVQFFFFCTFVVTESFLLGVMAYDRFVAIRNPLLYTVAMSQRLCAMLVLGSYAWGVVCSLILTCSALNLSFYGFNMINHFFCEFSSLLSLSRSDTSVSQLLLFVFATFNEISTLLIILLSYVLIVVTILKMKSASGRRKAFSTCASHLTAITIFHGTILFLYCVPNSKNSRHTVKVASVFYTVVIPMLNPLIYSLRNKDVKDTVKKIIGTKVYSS
Description: Ca2+-imaging, control receptor mOREG. The settings on record: for IC50: Table B; for inhibition at 4 µM: compound applied at 4 μM, read-out: Percent Inhibition mOREG. As to the method:
as §4, with “plates. The last two columns of the plate (32 wells total) were used as control wells as follows: • negative control with HBSS buffer (16 wells) • positive control with ligands (16 wells).” for “plates.”
as §5

For another assay, the target named is OR28/OR7 (Anopheles gambiae, UniProt A0A1S4GFY3+Q7QCC7). Briefly: Ca2+-imaging of stable HEK293T cell line OR28/OR7. To be noted: for inhibition at 4 µM: HEK-293T, compound applied at 4 μM, read-out: Percent Inhibition OR28 OR7; for IC50: Table B, read-out: IC50 OR28. The method, then: as §1, §2, §3, §4, §5
OR28/OR7, sequence (A0A1S4GFY3 entry or part of it): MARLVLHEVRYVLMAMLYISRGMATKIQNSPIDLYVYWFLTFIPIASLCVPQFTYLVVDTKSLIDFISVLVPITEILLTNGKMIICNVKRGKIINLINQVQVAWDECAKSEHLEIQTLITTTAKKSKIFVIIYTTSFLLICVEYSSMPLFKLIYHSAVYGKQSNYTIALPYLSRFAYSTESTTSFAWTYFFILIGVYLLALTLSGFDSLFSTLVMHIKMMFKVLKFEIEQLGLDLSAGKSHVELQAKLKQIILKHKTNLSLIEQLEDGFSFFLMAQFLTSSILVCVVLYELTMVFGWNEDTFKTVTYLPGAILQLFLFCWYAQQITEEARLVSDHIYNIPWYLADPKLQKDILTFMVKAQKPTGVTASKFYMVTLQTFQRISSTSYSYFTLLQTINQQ
OR28/OR7, sequence (Q7QCC7 whole entry): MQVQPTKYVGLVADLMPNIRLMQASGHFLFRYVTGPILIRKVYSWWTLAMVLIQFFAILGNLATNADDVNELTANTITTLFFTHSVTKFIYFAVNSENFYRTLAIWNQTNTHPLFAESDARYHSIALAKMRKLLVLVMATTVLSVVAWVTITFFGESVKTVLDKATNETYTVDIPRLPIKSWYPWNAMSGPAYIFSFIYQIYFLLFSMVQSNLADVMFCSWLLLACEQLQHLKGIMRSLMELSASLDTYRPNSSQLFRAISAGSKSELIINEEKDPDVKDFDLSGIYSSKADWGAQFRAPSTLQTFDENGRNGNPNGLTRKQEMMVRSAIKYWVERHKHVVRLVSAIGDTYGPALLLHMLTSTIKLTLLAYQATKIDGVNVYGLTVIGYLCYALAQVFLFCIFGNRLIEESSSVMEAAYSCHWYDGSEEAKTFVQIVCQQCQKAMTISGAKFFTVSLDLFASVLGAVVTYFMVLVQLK

OR10/OR7, sequence (Q7QCC7 whole entry): as above
OR10/OR7, sequence (B5U0U7 entry or part of it): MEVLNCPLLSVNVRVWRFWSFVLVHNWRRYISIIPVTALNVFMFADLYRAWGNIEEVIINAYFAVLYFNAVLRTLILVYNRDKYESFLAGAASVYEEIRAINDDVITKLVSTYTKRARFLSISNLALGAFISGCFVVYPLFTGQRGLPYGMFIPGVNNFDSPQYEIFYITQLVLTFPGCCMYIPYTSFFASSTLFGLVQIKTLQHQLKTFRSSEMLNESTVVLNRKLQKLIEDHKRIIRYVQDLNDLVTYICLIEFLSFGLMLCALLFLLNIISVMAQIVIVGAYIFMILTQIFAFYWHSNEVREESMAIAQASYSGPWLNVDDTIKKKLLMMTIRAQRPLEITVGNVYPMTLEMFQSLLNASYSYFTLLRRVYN
OR8/OR7, sequence (Q7QCC7 whole entry): as the sequence (Q7QCC7 whole entry) above
OR8/OR7, sequence (Q7PUT5 entry or part of it): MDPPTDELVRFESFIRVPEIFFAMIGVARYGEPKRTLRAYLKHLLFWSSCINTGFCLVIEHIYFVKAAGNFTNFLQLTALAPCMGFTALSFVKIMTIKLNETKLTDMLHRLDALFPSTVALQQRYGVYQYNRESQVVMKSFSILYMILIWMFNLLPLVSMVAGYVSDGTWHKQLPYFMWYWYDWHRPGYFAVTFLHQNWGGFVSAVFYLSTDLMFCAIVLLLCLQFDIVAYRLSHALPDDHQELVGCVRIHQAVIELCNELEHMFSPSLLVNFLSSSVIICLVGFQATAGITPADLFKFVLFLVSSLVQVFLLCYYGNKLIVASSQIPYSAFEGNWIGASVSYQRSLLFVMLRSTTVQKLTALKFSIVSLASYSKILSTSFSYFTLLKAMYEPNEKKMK
T1 sequence (Q8R4D5 whole entry): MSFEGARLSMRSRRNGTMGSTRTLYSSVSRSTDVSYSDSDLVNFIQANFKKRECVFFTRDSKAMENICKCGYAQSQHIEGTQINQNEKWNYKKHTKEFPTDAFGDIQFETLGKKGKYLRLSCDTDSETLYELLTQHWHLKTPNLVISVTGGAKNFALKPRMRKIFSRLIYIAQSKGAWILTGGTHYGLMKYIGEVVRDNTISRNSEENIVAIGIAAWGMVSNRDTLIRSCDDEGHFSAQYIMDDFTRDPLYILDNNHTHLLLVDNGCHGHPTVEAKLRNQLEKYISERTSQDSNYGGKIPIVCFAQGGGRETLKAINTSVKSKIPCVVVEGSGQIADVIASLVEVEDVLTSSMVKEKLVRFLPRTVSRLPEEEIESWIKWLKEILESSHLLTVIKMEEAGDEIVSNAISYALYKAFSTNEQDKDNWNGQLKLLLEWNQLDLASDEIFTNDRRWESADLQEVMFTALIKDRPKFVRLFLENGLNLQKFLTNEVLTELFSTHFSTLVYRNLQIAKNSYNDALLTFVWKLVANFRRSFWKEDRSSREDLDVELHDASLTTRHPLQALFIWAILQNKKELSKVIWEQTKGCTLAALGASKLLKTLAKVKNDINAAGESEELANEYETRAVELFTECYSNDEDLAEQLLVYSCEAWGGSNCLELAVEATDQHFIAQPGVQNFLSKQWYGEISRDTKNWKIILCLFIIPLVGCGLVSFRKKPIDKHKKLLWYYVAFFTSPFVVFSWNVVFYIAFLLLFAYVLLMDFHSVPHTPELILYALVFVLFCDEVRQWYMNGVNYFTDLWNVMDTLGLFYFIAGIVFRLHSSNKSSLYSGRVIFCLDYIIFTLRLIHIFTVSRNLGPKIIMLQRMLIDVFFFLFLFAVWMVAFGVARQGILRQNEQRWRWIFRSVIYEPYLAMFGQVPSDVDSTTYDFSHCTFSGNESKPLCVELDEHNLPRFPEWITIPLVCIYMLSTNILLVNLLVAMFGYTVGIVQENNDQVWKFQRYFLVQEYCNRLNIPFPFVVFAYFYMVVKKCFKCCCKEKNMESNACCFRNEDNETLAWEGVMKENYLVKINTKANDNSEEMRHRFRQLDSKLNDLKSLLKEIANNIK

For `CCN(CC)c1onc(-c2ccccc2)c1CN(CC1CCCO1)C(=O)c1ccc2c(c1)OCO2` (stereo not shown) [RU-0036875], the inhibition at 4 µM is 51 to 74% at OR8/OR7; 26 to 50% on OR10/OR7; < 25% at TRP channel (TRPM8); 51 to 74% on mOREG; > 75% on OR28/OR7. Besides, the results for the 50% inhibitory concentration (IC50) on OR8/OR7, at mOREG and on OR28/OR7 were > 1 µM, > 1 µM and < 0.1 µM, respectively.

With `CC(C)N(Cc1nccn1Cc1c(F)cccc1Cl)C(=O)c1ccc(Cl)cc1` [RU-0055364], the inhibition at 4 µM was 26 to 50% on OR8/OR7; > 75% at OR10/OR7; < 25% at TRP channel (TRPM8); 26 to 50% at mOREG; > 75% on OR28/OR7. Further, the IC50 at OR10/OR7 was 0.1 to 1 µM; at OR28/OR7, < 0.1 µM.

Regarding `COCCCN(Cc1c(-c2ccccc2)noc1N(C)C(C)C)C(=O)c1ccccc1OC` [RU-0037003], the inhibition at 4 µM on OR8/OR7 was 26 to 50%; on OR10/OR7, < 25%; at TRP channel (TRPM8), < 25%; at mOREG, 26 to 50%; on OR28/OR7, > 75%. At OR28/OR7, the concentration for half-maximal inhibition (IC50) is < 0.1 µM.

In the case of `Cc1ccccc1C(=O)N[C@@H]1CCCCC1NC(=O)C1CCN(C(=O)c2ccc(C(C)(C)C)cc2)CC1` (stereo partly shown) [RU-0045678], the inhibition at 4 µM was 26 to 50% on OR8/OR7; > 75% on OR10/OR7; < 25% at TRP channel (TRPM8); 26 to 50% on mOREG; > 75% on OR28/OR7. Moreover, the IC50 was > 1 µM at OR10/OR7 and < 0.1 µM on OR28/OR7.

Regarding `COc1cccc(NC(=O)CCC2CCN(C(=O)CSc3ccccc3)CC2)c1` [RU-0032474], the inhibition at 4 µM was < 25% at OR8/OR7; < 25% at OR10/OR7; < 25% at TRP channel (TRPM8); < 25% at mOREG; 51 to 74% on OR28/OR7. Further, at OR28/OR7, the IC50 is < 0.1 µM.

Consider `Cc1cc(N(C)C2CCCCC2)nc(SCc2cccc(C(=O)N3CCCC3)c2)n1` [RU-0034108], for which the inhibition at 4 µM was < 25% at OR8/OR7; 26 to 50% on OR10/OR7; < 25% at TRP channel (TRPM8); < 25% on mOREG; 26 to 50% at OR28/OR7.

For `C=CCN(Cc1nccn1Cc1ccccc1C)C(=O)CC(C)C` [RU-0058298], the inhibition at 4 µM on OR8/OR7 is < 25%; at OR10/OR7, > 75%; on TRP channel (TRPM8) it was 26 to 50%; at mOREG, 26 to 50%; on OR28/OR7 it was > 75%. In addition, the 50% inhibitory concentration (IC50) at OR10/OR7 and on OR28/OR7 was < 0.1 µM throughout.

For the compound `COc1ccccc1CC(=O)N1CCOC(COc2ccc(C)cc2)C1` (stereo not shown) [RU-0050390], the inhibition at 4 µM was < 25% at OR8/OR7; < 25% on OR10/OR7; < 25% at TRP channel (TRPM8); < 25% on mOREG; > 75% on OR28/OR7. Also, the half-maximal inhibitory concentration (IC50) on OR28/OR7 is < 0.1 µM.

In the case of `Cc1ccc(-c2nnc(SCCCC(=O)N3CCN(C(=O)c4cccc(F)c4)C(C)C3)n2-c2ccc(C)cc2)cc1` (stereo not shown) [RU-0071789], the inhibition at 4 µM was < 25% at OR8/OR7; > 75% on OR10/OR7; < 25% at TRP channel (TRPM8); 26 to 50% on mOREG; > 75% at OR28/OR7. The concentration for half-maximal inhibition (IC50) at OR10/OR7 and at OR28/OR7 was < 0.1 µM in each case.

With `COCCCN(Cc1c(-c2ccccc2)noc1N1CCCC1)C(=O)c1ccc(F)cc1` [RU-0037386], the inhibition at 4 µM on OR8/OR7 was 51 to 74%; at OR10/OR7, 26 to 50%; at TRP channel (TRPM8) it was < 25%; on mOREG it was 26 to 50%; at OR28/OR7, > 75%. Also, the values for the IC50 on OR8/OR7 and on OR28/OR7 were > 1 µM and < 0.1 µM, respectively.

On to `Cc1ccccc1C(=O)N[C@@H]1CCCCC1NC(=O)C1CCN(C(=O)c2cc(C(F)(F)F)cc(C(F)(F)F)c2)CC1` (stereo partly shown) [RU-0045778], for which the inhibition at 4 µM at OR8/OR7 was < 25%; at OR10/OR7 it was < 25%; on TRP channel (TRPM8) it was < 25%; at mOREG, 26 to 50%; on OR28/OR7, 51 to 74%. The half-maximal inhibitory concentration (IC50) at OR28/OR7 was < 0.1 µM.

In the case of `Cc1cc(C)c(Cn2ccnc2CN(C(=O)c2ccccc2F)C(C)C)c(C)c1` [RU-0048001], the inhibition at 4 µM on OR8/OR7 is 26 to 50%; on OR10/OR7, > 75%; on TRP channel (TRPM8) it was 26 to 50%; at mOREG, 26 to 50%; on OR28/OR7 it was > 75%. For the same compound, the concentration for half-maximal inhibition (IC50) on OR10/OR7 and at OR28/OR7 was < 0.1 µM throughout.

As for `CCn1c(C)c(C(=O)CN(CC2CCCO2)C(=O)C2C[C@H]2c2ccccc2)c(C)c1C(=O)OC` (stereo partly shown) [RU-0071273], the inhibition at 4 µM at OR8/OR7 was 26 to 50%; at OR10/OR7, 51 to 74%; on TRP channel (TRPM8), < 25%; at mOREG, 26 to 50%; on OR28/OR7, > 75%. In addition, the IC50 on OR10/OR7 is < 0.1 µM; on mOREG, 0.1 to 1 µM; at OR28/OR7 it was < 0.1 µM.

Regarding `Cc1nn(-c2ccc(Cl)cc2)c(C)c1C(=O)NCc1ccccn1` [RU-0048608], the inhibition at 4 µM at OR8/OR7 was < 25%; on OR10/OR7 it was 51 to 74%; at TRP channel (TRPM8), < 25%; at mOREG it was < 25%; at OR28/OR7, > 75%. Besides, the IC50 at OR10/OR7 is > 1 µM; on OR28/OR7, < 0.1 µM.

Regarding `COc1ccccc1CCC(=O)N1CCC(CCC(=O)Nc2ccccc2)CC1` [RU-0032455], the inhibition at 4 µM is 26 to 50% on OR8/OR7; < 25% on OR10/OR7; < 25% at TRP channel (TRPM8); 26 to 50% on mOREG; > 75% at OR28/OR7. For the same compound, the half-maximal inhibitory concentration (IC50) at OR28/OR7 is < 0.1 µM.

Consider `CCN(C)c1onc(-c2ccccc2)c1CN(CCCOC)C(=O)c1ccco1` [RU-0051926], for which the inhibition at 4 µM was < 25% on OR8/OR7; 26 to 50% on OR10/OR7; < 25% at TRP channel (TRPM8); < 25% on mOREG; > 75% at OR28/OR7. In addition, the IC50 at OR28/OR7 was > 1 µM.
